The test system of one series is isolated rat aorta. Kind of series: Vasorelaxation effects on isolated blood vessels (methoxamine induced vasoconstriction). The note with it: rat aorta constricted with methoxamine (3 μM). Here is the method:
The following experiment was conducted to examine whether the compounds of the formula 1 have vasorelaxation effects.
Male Sprague-Dawly rats (350-450 g, obtained from the Experimental Animal Team of the Korea Research Institute of Chemical Technology) were knocked unconscious by hitting the occipital region, sacrificed by cervical dislocation, and underwent thoracotomy. After being quickly removed, the thoracic aorta was deprived of the adipose tissue and cut into aortic rings of 3 mm width. The aorta was lightly rubbed with a modified Krebs Henseleit buffer (Physiological Salt Solution, PSS) soaked cotton club to remove the inner epithelial layer therefrom. While being suspended in an organ bath containing a physiological buffer, the vascular tissue was allowed to equilibrate under a resting tension of 2 g and then, stand for 1 hour at 37° C. for stabilization with a supply of a carbogen consisting of 95% O2-5% CO2.
Thereafter, the vascular tissue was constricted with 10^−5 M phenylephrine and washed several times with PSS and this procedure was repeated again to ensure the stable reactivity of vascular smooth muscle to repetitive constriction/dilatation.
In addition, 3×10^−6 M methoxamine was used to induce an intensive constriction in the vascular smooth muscle. When the vasoconstriction induced by the methoxamine reached and maintained a maximum, test compounds and controls were cumulatively added to the organ baths in concentrations of 1, 3, 10 and 30 μM so as to induce vasodilatation. Cromakalim, BMS-180448, and BMS-191095 were used as the controls.
Following the addition of test compounds, the change in the maximal constriction induced by methoxamine was calculated to plot a concentration-relaxation response curve. Through a linear regression analysis, IC50, the drug concentration at which the vascular tissue is 50% dilated, was obtained for each compound.

Series [1] deals with HUVECs (Human umbilical vein endothelial cells). Nature of the series: Inhibitory effects on HUVEC tube formation.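 For tube formation: from minus no inhibition up to plus-plus-plus complete inhibition versus vehicle.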 The class given is cell-based. The following applies: for inhibitory effect on HUVEC tube formation: 50 uM. Here is the method:
The Inhibitory effects of the compounds of the formula 1 on angiogenesis were meassured by the vascular tube formation assay of HUVECs (Human umbilical vein endothelial cells), which is one of the major angiogenic steps.
HUVECs were isolated from human umbilical vein, and cultured. HUVECs within passage 5 from confluent cultures were detached, and plated onto a layer of a bFGF (basic fibroblast growth factor)-reduced and polymerized Matrigel. Matrigel cultures were incubated with or without the compounds of formula 1, and the changes of cell morphology were captured through a phase contrast microscope and photographed.

Another series relates to SPF SD rats. The note with it: rat, in vivo, po.
The subject of another series is A549 NSCLC. Kind of series: Inhibition on A549 NSCLC growth in nude mice xenografts. The class given is in vivo, nude mice (BALB/c nu/nu). The following applies: for Inhibition (%) of tumor volume: 50 mg/Kg; for Tumor volume: 50 mg/Kg i.p. once daily day 1 to day 20. The procedure: Human tumor xenograft experiments were performed to evaluate whether the compounds of the formula 1 inhibit growth of human tumors implanted in nude mice.
(§1) Nude mice (BALB/c nu/nu, male) were purchased from Charls River Japan, Inc., and housed and treated under SPF (Special Pathogen Free) facilities according to the regulation of NIH (national institutes of health). A549 cells isolated from human non small cell lung cancer (NSCLC) were purchased from ATCC ([…], USA), and maintained as an exponentially growing monolayer in Korea Research Institute of Chemical Technology. Effects of the compounds of present invention on implanted tumor growth were measured by the comparison of tumor sizes, in addition, the changes of body weights and survival % of nude mice were observed.
Nude mice had been adjusted to the laboratory for 2-3 weeks after purchase, and all procedures were performed on male mice of 8 weeks of age, within a weight range of 18-20 g.
A549 tumor xenografts were established in the right flank of mice by subcutaneous injection of cells in 3×3×3 mm^3 size of culture. 24 hours after cell implantation, the administration of the compounds was started and which day is defined as day 1. Nude mice were injected intraperitoneally with the compound of example 23 (50 mg/kg) or vehicle (PBS containing 0.5% tween 80) once daily from day 1 to day 20. Tumor volume (V) was assessed by caliper measurement using the mathematical formula 1, where a was the longest diameter across the tumor and b was the corresponding perpendicular short diameter. Volume (mm^3)=a×b^2/2 [Mathematical Formula 1]
Inhibition (%) was calculated as (1−(VT)n/−(VC)n)×100, where (VT)n and (VC)n were the mean tumor volume of treated and control group at n days after administration of the compound. Each group consisted of 8 mice, and statistical significance was represented as student-T test (* p<0.05).

The nature of series [2]: Changes of body weight in nude mice implanted A549. The class given is in vivo, nude mice (BALB/c nu/nu). The following applies: 50 mg/Kg.
From the text: as §1
The effects of the compounds of the formula 1 on changes of body weights were determined. Body weights of nude mice were measured using AND balance at 5 day intervals starting from the date of administration of compounds, and represented as a mean value of treated group […], respectively.

Another series deals with A549 implanted mice. Nature of the series: Survival % in A549 implanted mice. The class given is in vivo. The note with it: for Survival %: 50 mg/Kg.
From the text: as §1
Survival percents were represented using following mathematical formula 2, where N0 is the number of mice at the first day of administration, and Nn is the number of mice at n days after administration. Survival %=Nn/N0×100 [Mathematical formula 2]

Marks after values point to notes of the source that are not given here.

By IC50 is commonly meant the midpoint of a concentration-inhibition curve. A higher IC50 goes with weaker potency.

For `CC1(C)Oc2ccc(C#N)cc2C(N(Cc2ncc[nH]2)c2ccc(Cl)cc2)[C@H]1O` (stereo partly drawn) [BMS-191095], the 50% inhibitory concentration (IC50) with isolated rat aorta worked out at 2140 nM.

Regarding `CC1(C)Oc2ccc(C#N)cc2C(N2CCCC2=O)C1O` (stereo not drawn) [Cromakalim], in the series with isolated rat aorta, the IC50 is 67 nM. Against the preceding molecule, the IC50 is about 32-fold lower.

As for `COC(OC)[C@@]1(C)Oc2ccc([N+](=O)[O-])cc2[C@@H](N(Cc2ncc[nH]2)c2ccccc2C(C)C)[C@@H]1O` [Example 10, (2S,3S,4R)-3,4-dihydro-2-dimethoxymethyl-3-hydroxy-2-methyl-6-nitro-4-[N-(2-isopropylphenyl)-N-(1H-imidazol-2-ylmethyl)amino]-2H-1-benzopyran], in series [1], the “inhibitory effect on HUVEC tube formation” value was “strongly inhibited”. Also, the Tube formation result in series [1] (50 μM) is reported as “++”. The “clinical symptoms, body weight and mortality” value (shortened to “clinical symptoms”) in the series on SPF SD rats is given as “no significant changes”.

Consider `COC(OC)[C@]1(C)Oc2ccc([N+](=O)[O-])cc2[C@H](N(Cc2ncc[nH]2)c2cccc(C)c2C)[C@H]1O` [Example 12, (2R,3R,4S)-3,4-dihydro-2-dimethoxymethyl-3-hydroxy-2-methyl-6-nitro-4-[N-(2,3-dimethylphenyl)-N-(1H-imidazol-2-ylmethyl)amino]-2H-1-benzopyran], for which, in series [1] (50 μM), the Tube formation result is recorded as “+”. Besides, the “clinical symptoms” value with SPF SD rats was “no significant changes”.

For `COC(OC)[C@]1(C)Oc2ccc([N+](=O)[O-])cc2[C@H](N(Cc2ncc[nH]2)c2ccc(Br)cc2)[C@H]1O` [Example 13, (2R,3R,4S)-3,4-dihydro-2-dimethoxymethyl-3-hydroxy-2-methyl-6-nitro-4-[N-(4-bromophenyl)-N-(1H-imidazol-2-ylmethyl)amino]-2H-1-benzopyran], the Tube formation entry in series [1] (50 μM) was “+”. In addition, in the series on SPF SD rats, the “clinical symptoms” value is “no significant changes”.

Turning to `COC(OC)[C@@]1(C)Oc2ccc(C#N)cc2[C@@H](N(Cc2ncc[nH]2)c2ccc(Cl)cc2)[C@@H]1O` [Example 22, (2S,3S,4R)-6-cyano-3,4-dihydro-2-dimethoxymethyl-3-hydroxy-2-methyl-4-[N-(4-chlorophenyl)-N-(1H-imidazol-2-ylmethyl)amino]-2H-1-benzopyran], the Tube formation entry in series [1] (10 μM) was “+”; in series [1] (100 μM), “++”. Further, the “clinical symptoms” value with SPF SD rats is “no significant changes”.

Consider `COC(OC)[C@]1(C)Oc2ccc(N)cc2[C@H](N(Cc2ncc[nH]2)c2ccc(Cl)cc2)[C@H]1O` [Example 23, (2R,3R,4S)-6-amino-3,4-dihydro-2-dimethoxymethyl-3-hydroxy-2-methyl-4-[N-(4-chlorophenyl)-N-(1H-imidazol-2-ylmethyl)amino]-2H-1-benzopyran], for which the “inhibitory effect on HUVEC tube formation” value in series [1] is listed as “didn't show any tube like structures”. Moreover, in series [1] (50 μM), the Tube formation entry is reported as “+++”. For the same molecule, the “Inhibition (%) of tumor volume” value in the series on A549 NSCLC (25 days) is “(40%)”; in the series with A549 NSCLC (35 days) it was “(39%)”; in the series with A549 NSCLC (45 days) it was “(50%)”; with A549 NSCLC (65 days) it was “(52%)”. The Tumor volume in the series on A549 NSCLC (25 days) is reported as 92.2 mm^3; in the series with A549 NSCLC (35 days), 186.8 mm^3; with A549 NSCLC (45 days), 244.3* mm^3; in the series with A549 NSCLC (65 days) it was 494.8* mm^3. Also, the “Inhibition of A549 NSCLC growth” value with A549 NSCLC (from 45 days to 61 days after implantation) is on record as 50-52%. Moreover, the “retardation or loss of body weight gain” value in series [2] is “not observed”. Besides, the Body weight in series [2] (1 day) is recorded as 22.30 g; in series [2] (14 days), 25.42 g; in series [2] (25 days) it was 26.17 g; in series [2] (35 days), 27.10 g. Besides, the Survival % with A549 implanted mice (1 day), in the series on A549 implanted mice (5 days), in the series with A549 implanted mice (15 days) and in the series with A549 implanted mice (20 days) was 100% each time. Moreover, in the series on A549 implanted mice (table 6), the survival rate came to 100%. The “clinical symptoms” value with SPF SD rats is listed as “no significant changes”.

Turning to `COC(OC)[C@]1(C)Oc2ccc(N)cc2[C@H](N(Cc2ncc[nH]2)c2ccc(OC(F)(F)F)cc2)[C@H]1O` [Example 26, (2R,3R,4S)-6-amino-3,4-dihydro-2-dimethoxymethyl-3-hydroxy-2-methyl-4-[N-(4-trifluoromethoxyphenyl)-N-(1H-imidazol-2-ylmethyl)amino]-2H-1-benzopyran], the Tube formation entry in series [1] (50 μM) was “+”. In addition, the “clinical symptoms” value in the series with SPF SD rats was “no significant changes”.

On to `COC(OC)[C@]1(C)Oc2ccc(N)cc2[C@H](N(Cc2ncc[nH]2)c2cccc(C)c2C)[C@H]1O` [Example 27, (2R,3R,4S)-6-amino-3,4-dihydro-2-dimethoxymethyl-3-hydroxy-2-methyl-4-[N-(2,3-dimethylphenyl)-N-(1H-imidazol-2-ylmethyl)amino]-2H-1-benzopyran], for which the Tube formation result in series [1] (50 μM) is “+/−”. Besides, in the series on SPF SD rats, the “clinical symptoms” value is listed as “no significant changes”.

For the molecule `COc1ccc(N(Cc2ncc[nH]2)[C@H]2c3cc(N)ccc3O[C@@](C)(C(OC)OC)[C@@H]2O)cc1` [Example 28, (2R,3R,4S)-6-amino-3,4-dihydro-2-dimethoxymethyl-3-hydroxy-2-methyl-4-[N-(4-methoxyphenyl)-N-(1H-imidazol-2-ylmethyl)amino]-2H-1-benzopyran], the Tube formation result in series [1] (50 μM) is reported as “+”. In the series with SPF SD rats, the “clinical symptoms” value is “no significant changes”.

`COC(OC)[C@]1(C)Oc2ccc(N)cc2[C@H](N(Cc2ncc[nH]2)c2ccc(Br)cc2)[C@H]1O` [Example 29, (2R,3R,4S)-6-amino-3,4-dihydro-2-dimethoxymethyl-3-hydroxy-2-methyl-4-[N-(4-bromophenyl)-N-(1H-imidazol-2-ylmethyl)amino]-2H-1-benzopyran]: in series [1] (50 μM), the Tube formation entry was “+”. The “clinical symptoms” value with SPF SD rats was “no significant changes”.

(Values after patent US7279497B2, “Benzopyran derivatives substituted with secondary amines including imidazole, their preparation and pharmaceutical compositions containing them” (Korea Research Institute of Chemical Technology, priority 2002, dated 2007).)
